According to publication PMC6473744, “Antiproliferative Activity of (-)-Rabdosiin Isolated from Ocimum sanctum L” (Medicines, 2019):
In brackets after ≈: the same amount, converted by molar mass.

Tests used:
[1] = test system: MCF-7; experiment: MTT reduction assay, cytotoxicity; format: cell-based, human; details: for IC50: Homo sapiens, MCF7
Protocol: Compounds were prepared at a stock solution of 10.0 mg/mL in DMSO and the extract at 20.0 mg/mL in DMSO. […] Cytotoxicity was evaluated by the MTT reduction assay, which determines the effect of treatment with an exogenously added agent on the viability of the cell population. […] Further, cells were incubated with the compounds for 72 h at 37 °C in a 5% CO2 incubator. The MTT reagent (Sigma-Aldrich, Darmstadt, Germany; 1 mg/mL in phosphate buffered saline (PBS); 100 μL/well) was added during the last 4 h of incubation. The formazan crystals formed were dissolved by adding 0.1 M HCl in 2-propanol (100 μL/well) and absorption was measured using an ELISA reader (Denley WeScan, Finland) at 545 nm with reference filter set at 690 nm. All cultures were set in triplicate, whereas cells incubated in complete medium or in medium containing the equivalent amount of DMSO, as well as cells incubated in the presence of doxorubicin (Sigma-Aldrich) were used as negative and positive controls, respectively.
All experiments were performed at least three times.

[2] = test system: SKBR3; experiment: MTT reduction assay, cytotoxicity; format: cell-based; details: Homo sapiens, SK-BR-3
Protocol: (§1) The cytotoxic activity of the compounds, as well as of the initial methanol extract, were tested against three human cancer cell lines: MCF-7 (breast; estrogen receptor positive (ER+), progesterone receptor (PR)+, and HER2 negative (-)), SKBR3 (breast; ER-, PR-, and HER2+), and HCT-116 (colon). All cell lines were maintained in RPMI-1640, supplemented with 10% heat-inactivated fetal bovine serum (FBS), 10 mM Hepes, 10 U/mL penicillin, 10 U/mL streptomycin, and […] (all from Lonza, Cologne, Germany) (thereafter referred to as complete medium) at 37 °C in a humidified 5% CO2 incubator.
(§2) Compounds were prepared at a stock solution of 10.0 mg/mL in DMSO and the extract at 20.0 mg/mL in DMSO. Prior to their use, they were diluted in plain RPMI-1640. Cytotoxicity was evaluated by the MTT reduction assay, which determines the effect of treatment with an exogenously added agent on the viability of the cell population. Briefly, cells were plated in 96-well plates (Greiner Bio-One GmbH, Frickenhausen, Germany; 5 × 10^3 cells/well) and incubated at 5% CO2 and 95% air at 37 °C for 24 h, in order to adhere. Further, cells were incubated with the compounds for 72 h at 37 °C in a 5% CO2 incubator. The MTT reagent (Sigma-Aldrich, Darmstadt, Germany; 1 mg/mL in phosphate buffered saline (PBS); 100 μL/well) was added during the last 4 h of incubation. The formazan crystals formed were dissolved by adding 0.1 M HCl in 2-propanol (100 μL/well) and absorption was measured using an ELISA reader (Denley WeScan, Finland) at 545 nm with reference filter set at 690 nm. All cultures were set in triplicate, whereas cells incubated in complete medium or in medium containing the equivalent amount of DMSO, as well as cells incubated in the presence of doxorubicin (Sigma-Aldrich) were used as negative and positive controls, respectively. The half maximal inhibitory concentration (IC50) was calculated according to the formula: 100(A0 − A)/A0 = 50, where A and A0 are optical densities of wells exposed to the compounds and control wells, respectively.
(§3) The compounds were tested at a concentration range of 200.0 to 6.25 μg/mL and the extract at 750.0 to 1.25 μg/mL. […] All experiments were performed at least three times.

[3] = test system: HCT-116; experiment: MTT reduction assay, cytotoxicity; format: cell-based; details: Homo sapiens
Protocol: as §1, §2, §3

[4] = test system: MCF-7, SKBR3, and HCT-116; experiment: MTT reduction assay, stated for all cell lines together; format: cell-based; details: Homo sapiens; all cell lines tested, positive control
Protocol: as §1
Compounds were prepared at a stock solution of 10.0 mg/mL in DMSO and the extract at 20.0 mg/mL in DMSO. Prior to their use, they were diluted in plain RPMI-1640. Cytotoxicity was evaluated by the MTT reduction assay, which determines the effect of treatment with an exogenously added agent on the viability of the cell population. […] The formazan crystals formed were dissolved by adding 0.1 M HCl in 2-propanol (100 μL/well) and absorption was measured using an ELISA reader (Denley WeScan, Finland) at 545 nm with reference filter set at 690 nm. […] The half maximal inhibitory concentration (IC50) was calculated according to the formula: 100(A0 − A)/A0 = 50, where A and A0 are optical densities of wells exposed to the compounds and control wells, respectively. […]

[5] = test system: human peripheral blood mononuclear cells (PBMCs); experiment: Cytotoxic effect against PBMCs, annexin V/PI flow cytometry; format: cell-based; details: 24 h
Protocol: (§4) MCF-7, SKBR3 and HCT-116 cells were incubated with compound 6 and analyzed with flow cytometry following staining with annexin V and propidium iodide (PI). […] Cells were detached with 2 mM EDTA in Dulbecco’s PBS (DPBS), harvested, centrifuged in cold PBS (1500 rpm; 5 min), and stained with the Annexin V-FITC Apoptosis Detection Kit (BioLegend, Fell, Germany; cat# 640914), according to the manufacturers’ instructions. In brief, cells were resuspended in binding buffer, then annexin V-FITC (5 μL) and PI (10 μL; 0.03 μg/sample) were added, mixed, and incubated with the cells for 15 min in the dark at room temperature. The volume was adjusted to 500 μL with binding buffer and the cell suspension was immediately analyzed in a FACSCanto II (BD Biosciences, San Diego, CA, USA) using FACSDiva software (V7, BD Biosciences).
Compound 6 was additionally assessed for its cytotoxicity against human peripheral blood mononuclear cells (PBMCs) isolated from healthy blood donors’ peripheral blood as previously described. Prior to blood draw, individuals gave their informed consent according to the regulations approved by the 2nd Peripheral Blood Transfusion Unit and Hemophiliac Centre, “Laikon” General Hospital Institutional Review Board, Athens, Greece. PBMCs were seeded in 24-well plates (5 × 10^5/mL; 2 mL/well) and exposed to 2 concentrations of compound 6: 80 μg/mL and 40 μg/mL. PBMCs were collected, stained as described in 2.5 and analyzed by flow cytometry.

[6] = test system: MCF-7, SKBR3, and HCT-116 cells; experiment: Annexin V/PI flow cytometry, stated for all cell lines together; format: cell-based, human; details: 72 h
Protocol: as §4

[7] = test system: SKBR3; experiment: Annexin V/PI flow cytometry analysis; format: cell-based, human; details: SKBR3, 80 μg/mL, 72 h
Protocol: as §4

[8] = test system: MCF-7; experiment: Annexin V/PI flow cytometry analysis; format: cell-based, human; details: MCF-7, 80 μg/mL, 72 h
Protocol: as §4

[9] = test system: HCT-116; experiment: Annexin V/PI flow cytometry analysis; format: cell-based, human; details: HCT-116, 80 μg/mL, 72 h
Protocol: as §4

[10] = MCF-7, 72 h exposure, mean ± SD of three experiments
[11] = 40 μg/mL, range over the cell lines

## O=C(O[C@H](Cc1ccc(O)c(O)c1)C(=O)O)[C@H]1[C@H](C(=O)O[C@H](Cc2ccc(O)c(O)c2)C(=O)O)[C@H](c2ccc(O)c(O)c2)[C@H]1c1ccc(O)c(O)c1 [Compound 7, shimobashiric acid C]
[1]; [10]
  IC50 ± SD: 142 ± 3.54 µg/mL (≈ 197 µM)

## O=C(O)c1ccc(O)c(O)c1 [Compound 13, protocatechuic acid]
[1]; [10]
  IC50: 140 ± 4.95 µg/mL

## O=C(O)[C@H]1O[C@@H](Oc2cc(O)c3c(=O)cc(-c4ccc(O)c(O)c4)oc3c2)[C@H](O)[C@@H](O)[C@@H]1O [Compound 9, luteolin 7-O-β-D-glucuronide]
[1]; [10]
  IC50 ± SD: 141 ± 1.41 µg/mL (≈ 305 µM)

## O=C(O)/C=C/c1ccc(O[C@@H]2O[C@H](CO)[C@@H](O)[C@H](O)[C@H]2O)cc1 [Compound 11, (E)-p-coumaroyl 4-O-β-D-glucoside]
[1]; [10]
  IC50 ± SD: 139 ± 7.78 µg/mL (≈ 426 µM)

## COc1cccc2c1C(=O)c1c(O)c3c(c(O)c1C2=O)C[C@@](O)(C(=O)CO)C[C@@H]3O[C@H]1C[C@H](N)[C@H](O)[C@H](C)O1 [Doxorubicin, reference compound]
[2]; SKBR3, positive control
  IC50: 95 ± 8 nM
[3]; HCT-116, positive control
  IC50: 192 ± 29 nM
[4]
  IC50: ≤ 200 nM
[1]; MCF-7, positive control
  IC50: 92 ± 7 nM

## O=C(O)C(O)Cc1ccc(O)c(O)c1 (centres unmarked) [Compound 12, 3-(3,4-dihydroxyphenyl) lactic acid]
[1]; [10]
  IC50: 140 ± 12 µg/mL

## O=C(O[C@H](Cc1ccc(O)c(O)c1)C(=O)O)C1=Cc2cc(O)c(O)cc2[C@@H](c2ccc(O)c(O)c2)[C@@H]1C(=O)O[C@H](Cc1ccc(O)c(O)c1)C(=O)O [Compound 6, (-)-rabdosiin]
[5]; donor 1, 40 μg/mL
  early apoptotic PBMCs: 1.8%
  late apoptotic/necrotic PBMCs: 1.7%
[5]; donor 1, 80 μg/mL
  early apoptotic PBMCs: 2.8%
  late apoptotic/necrotic PBMCs: 3.0%
[5]; donor 2, 40 μg/mL
  early apoptotic PBMCs: 2.1%
  late apoptotic/necrotic PBMCs: 1.9%
[5]; donor 2, 80 μg/mL
  early apoptotic PBMCs: 4.3%
  late apoptotic/necrotic PBMCs: 3.1%
[6]; [11]
  early apoptotic cells: 13.5–20.1%
  late apoptotic/necrotic cells: 3.9–6.5%
[6]; 80 μg/mL, all cell lines
  cells driven to apoptosis: ca. 50%
[2]; SKBR3, 72 h exposure, mean ± SD of three experiments
  IC50: 83 ± 3.54 µg/mL
[3]; HCT-116, 72 h exposure, mean ± SD of three experiments
  IC50: 84 ± 7.78 µg/mL
[7]
  early apoptotic cells (annexin V+): 40.1%
  late apoptotic/necrotic cells (annexin V+/PI+): 9.1%
[8]
  early apoptotic cells (annexin V+): 44.9%
  late apoptotic/necrotic cells (annexin V+/PI+): 12.3%
[9]
  early apoptotic cells (annexin V+): 43.1%
  late apoptotic/necrotic cells (annexin V+/PI+): 10.2%
[1]; [10]
  IC50: 75 ± 2.12 µg/mL
